Assay results as given in ChEMBL document CHEMBL1143404, “New plasmid-mediated fluoroquinolone efflux pump, QepA, found in an Escherichia coli clinical isolate” (2007).
Converted amounts (≈) assume the structure as drawn.

Assays:
Assay type in all cases: functional
Escherichia coli [1] = assay: Ratio of MIC for Escherichia coli KAM32 pSTVqepA mutant to MIC for Escherichia coli KAM32 pSTV28 mutant
Escherichia coli [2] = assay: Antimicrobial activity against Escherichia coli KAM32 pSTV28 containing chloramphenicol-resistant vector by agar dilution method
Escherichia coli [3] = assay: Antimicrobial activity against Escherichia coli KAM32 pHPA containing mutated GyrA gene by agar dilution method
Escherichia coli [4] = assay: Antimicrobial activity against Escherichia coli KAM32 pSTVqepA containing qepA gene ligated to pSTV28 plasmid by agar dilution method
Escherichia coli [5] = assay: Antimicrobial activity against Escherichia coli KAM32 expressing deltaacrB ydhE hsd gene by agar dilution method
Escherichia coli [6] = assay: Antimicrobial activity against Escherichia coli KAM32 pSTVdeltaqepA containing disrupted qepA gene by agar dilution method
Escherichia coli [7] = assay: Antimicrobial activity against multidrug-resistant Escherichia coli C316 pHPA containing mutated GyrA gene by agar dilution method

SMILES | Ratio (Escherichia coli [1]) | MIC (Escherichia coli [2]) | MIC (Escherichia coli [3]) | MIC (Escherichia coli [4]) | MIC (Escherichia coli [5]) | MIC (Escherichia coli [6]) | MIC (Escherichia coli [7])
NC[C@H]1O[C@H](O[C@H]2[C@H](O)[C@@H](O[C@H]3O[C@H](CO)[C@@H](O)[C@H](N)[C@H]3O)[C@H](N)C[C@@H]2N)[C@H](O)[C@@H](O)[C@@H]1O [KANAMYCIN] | 1 | 1 µg/mL (≈ 2.06 µM) | > 128 µg/mL | 1 µg/mL (≈ 2.06 µM) | 1 µg/mL (≈ 2.06 µM) | 128 µg/mL (≈ 264 µM) | > 128 µg/mL
C[C@@H]1CN(c2c(F)c(N)c3c(=O)c(C(=O)O)cn(C4CC4)c3c2F)C[C@H](C)N1 [SPARFLOXACIN] | 2 | 0.001 µg/mL (≈ 0.00255 µM) | 0.002 µg/mL (≈ 0.0051 µM) | 0.002 µg/mL (≈ 0.0051 µM) | 0.001 µg/mL (≈ 0.00255 µM) | 0.001 µg/mL (≈ 0.00255 µM) | 16 µg/mL (≈ 40.8 µM)
NC1CCN(c2nc3c(cc2F)c(=O)c(C(=O)O)cn3-c2ccc(F)cc2F)C1 (stereo not drawn) [TOSUFLOXACIN] | 16 | 0.002 µg/mL (≈ 0.00495 µM) | 0.032 µg/mL (≈ 0.0791 µM) | 0.032 µg/mL (≈ 0.0791 µM) | 0.002 µg/mL (≈ 0.00495 µM) | 0.002 µg/mL (≈ 0.00495 µM) | > 128 µg/mL
CCn1cc(C(=O)O)c(=O)c2cc(F)c(N3CCNC(C)C3)c(F)c21 (stereo not drawn) [LOMEFLOXACIN] | 2 | 0.032 µg/mL (≈ 0.0911 µM) | 0.064 µg/mL (≈ 0.182 µM) | 0.064 µg/mL (≈ 0.182 µM) | 0.032 µg/mL (≈ 0.0911 µM) | 0.032 µg/mL (≈ 0.0911 µM) | > 128 µg/mL
CN(C)[C@@H]1C(O)=C(C(N)=O)C(=O)[C@@]2(O)C(O)=C3C(=O)c4c(O)cccc4[C@@](C)(O)[C@H]3C[C@@H]12 [TETRACYCLINE] | 1 | 0.25 µg/mL (≈ 0.563 µM) | 0.25 µg/mL (≈ 0.563 µM) | 0.25 µg/mL (≈ 0.563 µM) | 0.25 µg/mL (≈ 0.563 µM) | 0.125 µg/mL (≈ 0.281 µM) | > 128 µg/mL
CC/N=c1\cc2oc3cc(NCC)c(C)cc3c(-c3ccccc3C(=O)OCC)c-2cc1C.Cl [RHODAMINE 6G HYDROCHLORIDE] | 1 | 4 µg/mL | 4 µg/mL | 4 µg/mL | 4 µg/mL | 4 µg/mL | > 128 µg/mL
CCN1CCN(c2cc3c(cc2F)c(=O)c(C(=O)O)cn3C2CC2)CC1 [ENROFLOXACIN] | 32 | 0.008 µg/mL (≈ 0.0223 µM) | 0.25 µg/mL (≈ 0.696 µM) | 0.25 µg/mL (≈ 0.696 µM) | 0.008 µg/mL (≈ 0.0223 µM) | 0.008 µg/mL (≈ 0.0223 µM) | > 128 µg/mL
C[C@H]1COc2c(N3CCN(C)CC3)c(F)cc3c(=O)c(C(=O)O)cn1c23.C[C@H]1COc2c(N3CCN(C)CC3)c(F)cc3c(=O)c(C(=O)O)cn1c23.O [LEVOFLOXACIN] |  | 0.004 µg/mL |  |  |  | 0.004 µg/mL | 32 µg/mL
CN(C)c1ccc(C(=C2C=CC(=[N+](C)C)C=C2)c2ccc(N(C)C)cc2)cc1.[Cl-] [GENTIAN VIOLET] | 1 | 2 µg/mL | 2 µg/mL | 2 µg/mL | 2 µg/mL | 2 µg/mL | 16 µg/mL
CC[C@H]1OC(=O)[C@H](C)[C@@H](O[C@H]2C[C@@](C)(OC)[C@@H](O)[C@H](C)O2)[C@H](C)[C@@H](O[C@@H]2O[C@H](C)C[C@H](N(C)C)[C@H]2O)[C@](C)(O)C[C@@H](C)C(=O)[C@H](C)[C@@H](O)[C@]1(C)O [ERYTHROMYCIN] | 2 | 1 µg/mL (≈ 1.36 µM) | > 128 µg/mL | 2 µg/mL (≈ 2.73 µM) | 2 µg/mL (≈ 2.73 µM) | 1 µg/mL (≈ 1.36 µM) | > 128 µg/mL
CCn1cc(C(=O)O)c(=O)c2cc(F)c(N3CCNCC3)cc21 [NORFLOXACIN] | 64 | 0.016 µg/mL (≈ 0.0501 µM) | 0.25 µg/mL (≈ 0.783 µM) | 1 µg/mL (≈ 3.13 µM) | 0.016 µg/mL (≈ 0.0501 µM) | 0.016 µg/mL (≈ 0.0501 µM) | > 128 µg/mL
